Tested on: CD8 cells & tumor cell lines (K562, M21, CRL2505, MDA-MB-231, A549, TC71, MG63, RD, U138MG)
Experiment: Isolated CD8 cells in co-culture with tumor cell lines of diverse origin: IFN-gamma, IL-2, granzyme
Assay type: cell-based, human
Experimental: Isolated PBMCs, NK cells or CD8 positive cells were plated in Xvivo medium at 1.5*10^5 cells per in 96 well culture plates in the presence of 0.3*10^4 tumor cells where indicated. Cytokine secretion was determined by ELISA, immune cell activation (using Beckman-Coulter Abs CD25-PC5, CD69-PC7), cell viability and numbers by flow cytometry (Beckman-Coulter FC500 or Gallios) using 7-AAD exclusion as criterion for living cells. PBMCs were isolated and incubated with and without compounds, either alone or in co-culture with different tumor cells.

**Q.** What does the source list for `Cl.N[C@H]1CS(=O)(=O)c2cc(F)c(C(=O)NCCCC(F)(F)F)cc2N(Cc2ccc(Cl)cc2)C1=O` [Example 70, (3R)-3-amino-5-[(4-chlorophenyl)methyl]-8-fluoro-1,1,4-trioxo-N-(4,4,4-trifluoro-butyl)-2,3,4,5-tetrahydro-1λ^6,5-benzothiazepine-7-carboxamide hydrochloride]?
**A.** Granzyme (CD8 cells & A549, 0.1 μM): 0.04 ng/mL; IFN-gamma (CD8 cells & A549, 0.1 μM): 0.01 ng/mL; IL-2 (CD8 cells & A549, 0.1 μM): 0.00 ng/mL; Granzyme (CD8 cells & A549, 0.3 μM): 0.09 ng/mL; IFN-gamma (CD8 cells & A549, 0.3 μM): 0.03 ng/mL; IL-2 (CD8 cells & A549, 0.3 μM): 0.15 ng/mL; Granzyme (CD8 cells & A549, 1 μM): 0.10 ng/mL; IFN-gamma (CD8 cells & A549, 1 μM): 0.08 ng/mL; IL-2 (CD8 cells & A549, 1 μM): 0.36 ng/mL; Granzyme (CD8 cells & A549, 3 μM): 0.07 ng/mL; IFN-gamma (CD8 cells & A549, 3 μM): 0.07 ng/mL; IL-2 (CD8 cells & A549, 3 μM): 0.28 ng/mL; Granzyme (CD8 cells & A549, 10 μM): 0.16 ng/mL; IFN-gamma (CD8 cells & A549, 10 μM): 0.16 ng/mL; IL-2 (CD8 cells & A549, 10 μM): 0.59 ng/mL; Granzyme (CD8 cells & K562, 0.1 μM): 1.58 ng/mL; IFN-gamma (CD8 cells & K562, 0.1 μM): 6.97 ng/mL; IL-2 (CD8 cells & K562, 0.1 μM): 3.86 ng/mL; Granzyme (CD8 cells & K562, 0.3 μM): 2.38 ng/mL; IFN-gamma (CD8 cells & K562, 0.3 μM): 7.57 ng/mL; IL-2 (CD8 cells & K562, 0.3 μM): 3.20 ng/mL; Granzyme (CD8 cells & K562, 1 μM): 1.81 ng/mL; IFN-gamma (CD8 cells & K562, 1 μM): 11.23 ng/mL; IL-2 (CD8 cells & K562, 1 μM): 4.08 ng/mL; Granzyme (CD8 cells & K562, 3 μM): 3.91 ng/mL; IFN-gamma (CD8 cells & K562, 3 μM): 8.44 ng/mL; IL-2 (CD8 cells & K562, 3 μM): 3.72 ng/mL; Granzyme (CD8 cells & K562, 10 μM): 4.83 ng/mL; IFN-gamma (CD8 cells & K562, 10 μM): 8.26 ng/mL; IL-2 (CD8 cells & K562, 10 μM): 2.82 ng/mL; Granzyme (CD8 cells & M21, 0.1 μM): 0.24 ng/mL; IFN-gamma (CD8 cells & M21, 0.1 μM): 0.00 ng/mL; IL-2 (CD8 cells & M21, 0.1 μM): 0.39 ng/mL; Granzyme (CD8 cells & M21, 0.3 μM): 0.53 ng/mL; IFN-gamma (CD8 cells & M21, 0.3 μM): 0.02 ng/mL; IL-2 (CD8 cells & M21, 0.3 μM): 0.31 ng/mL; Granzyme (CD8 cells & M21, 1 μM): 0.41 ng/mL; IFN-gamma (CD8 cells & M21, 1 μM): 0.06 ng/mL; IL-2 (CD8 cells & M21, 1 μM): 0.67 ng/mL; Granzyme (CD8 cells & M21, 3 μM): 0.40 ng/mL; IFN-gamma (CD8 cells & M21, 3 μM): 0.03 ng/mL; IL-2 (CD8 cells & M21, 3 μM): 0.64 ng/mL; Granzyme (CD8 cells & M21, 10 μM): 0.50 ng/mL; IFN-gamma (CD8 cells & M21, 10 μM): 0.10 ng/mL; IL-2 (CD8 cells & M21, 10 μM): 0.47 ng/mL; Granzyme (CD8 cells & MDA-MB-231, 0.1 μM): 1.86 ng/mL; IFN-gamma (CD8 cells & MDA-MB-231, 0.1 μM): 10.72 ng/mL; IL-2 (CD8 cells & MDA-MB-231, 0.1 μM): 1.51 ng/mL; Granzyme (CD8 cells & MDA-MB-231, 0.3 μM): 3.40 ng/mL; IFN-gamma (CD8 cells & MDA-MB-231, 0.3 μM): 20.55 ng/mL; IL-2 (CD8 cells & MDA-MB-231, 0.3 μM): 2.14 ng/mL; Granzyme (CD8 cells & MDA-MB-231, 1 μM): 4.23 ng/mL; IFN-gamma (CD8 cells & MDA-MB-231, 1 μM): 22.31 ng/mL; IL-2 (CD8 cells & MDA-MB-231, 1 μM): 2.40 ng/mL; Granzyme (CD8 cells & MDA-MB-231, 3 μM): 5.20 ng/mL; IFN-gamma (CD8 cells & MDA-MB-231, 3 μM): 25.24 ng/mL; IL-2 (CD8 cells & MDA-MB-231, 3 μM): 3.21 ng/mL; Granzyme (CD8 cells & MDA-MB-231, 10 μM): 5.93 ng/mL; IFN-gamma (CD8 cells & MDA-MB-231, 10 μM): 24.22 ng/mL; IL-2 (CD8 cells & MDA-MB-231, 10 μM): 3.63 ng/mL; Granzyme (CD8 cells & MG63, 0.1 μM): 0.23 ng/mL; IFN-gamma (CD8 cells & MG63, 0.1 μM): 0.92 ng/mL; IL-2 (CD8 cells & MG63, 0.1 μM): 0.00 ng/mL; Granzyme (CD8 cells & MG63, 0.3 μM): 0.29 ng/mL; IFN-gamma (CD8 cells & MG63, 0.3 μM): 1.43 ng/mL; IL-2 (CD8 cells & MG63, 0.3 μM): 0.00 ng/mL; Granzyme (CD8 cells & MG63, 1 μM): 0.28 ng/mL; IFN-gamma (CD8 cells & MG63, 1 μM): 1.79 ng/mL; IL-2 (CD8 cells & MG63, 1 μM): 0.00 ng/mL; Granzyme (CD8 cells & MG63, 3 μM): 0.38 ng/mL; IFN-gamma (CD8 cells & MG63, 3 μM): 1.92 ng/mL; IL-2 (CD8 cells & MG63, 3 μM): 0.00 ng/mL; Granzyme (CD8 cells & MG63, 10 μM): 0.44 ng/mL; IFN-gamma (CD8 cells & MG63, 10 μM): 2.36 ng/mL; IL-2 (CD8 cells & MG63, 10 μM): 0.00 ng/mL; Granzyme (CD8 cells & RD, 0.1 μM): 0.09 ng/mL; IFN-gamma (CD8 cells & RD, 0.1 μM): 0.12 ng/mL; IL-2 (CD8 cells & RD, 0.1 μM): 0.00 ng/mL; Granzyme (CD8 cells & RD, 0.3 μM): 0.16 ng/mL; IFN-gamma (CD8 cells & RD, 0.3 μM): 0.45 ng/mL; IL-2 (CD8 cells & RD, 0.3 μM): 0.00 ng/mL; Granzyme (CD8 cells & RD, 1 μM): 0.20 ng/mL; IFN-gamma (CD8 cells & RD, 1 μM): 0.54 ng/mL; IL-2 (CD8 cells & RD, 1 μM): 0.00 ng/mL; Granzyme (CD8 cells & RD, 3 μM): 0.17 ng/mL; IFN-gamma (CD8 cells & RD, 3 μM): 0.65 ng/mL; IL-2 (CD8 cells & RD, 3 μM): 0.00 ng/mL; Granzyme (CD8 cells & RD, 10 μM): 0.30 ng/mL; IFN-gamma (CD8 cells & RD, 10 μM): 1.59 ng/mL; IL-2 (CD8 cells & RD, 10 μM): 0.00 ng/mL; Granzyme (CD8 cells & TC71, 0.1 μM): 0.06 ng/mL; IFN-gamma (CD8 cells & TC71, 0.1 μM): 0.04 ng/mL; IL-2 (CD8 cells & TC71, 0.1 μM): 0.58 ng/mL; Granzyme (CD8 cells & TC71, 0.3 μM): 0.08 ng/mL; IFN-gamma (CD8 cells & TC71, 0.3 μM): 0.11 ng/mL; IL-2 (CD8 cells & TC71, 0.3 μM): 0.97 ng/mL; Granzyme (CD8 cells & TC71, 1 μM): 0.10 ng/mL; IFN-gamma (CD8 cells & TC71, 1 μM): 0.14 ng/mL; IL-2 (CD8 cells & TC71, 1 μM): 1.25 ng/mL; Granzyme (CD8 cells & TC71, 3 μM): 0.10 ng/mL; IFN-gamma (CD8 cells & TC71, 3 μM): 0.27 ng/mL; IL-2 (CD8 cells & TC71, 3 μM): 1.14 ng/mL; Granzyme (CD8 cells & TC71, 10 μM): 0.15 ng/mL; IFN-gamma (CD8 cells & TC71, 10 μM): 0.38 ng/mL; IL-2 (CD8 cells & TC71, 10 μM): 1.57 ng/mL; Granzyme (CD8 cells & U138MG, 0.1 μM): 0.03 ng/mL; IFN-gamma (CD8 cells & U138MG, 0.1 μM): 0.00 ng/mL; IL-2 (CD8 cells & U138MG, 0.1 μM): 0.00 ng/mL; Granzyme (CD8 cells & U138MG, 0.3 μM): 0.04 ng/mL; IFN-gamma (CD8 cells & U138MG, 0.3 μM): 0.01 ng/mL; IL-2 (CD8 cells & U138MG, 0.3 μM): 0.00 ng/mL; Granzyme (CD8 cells & U138MG, 1 μM): 0.01 ng/mL; IFN-gamma (CD8 cells & U138MG, 1 μM): 0.02 ng/mL; IL-2 (CD8 cells & U138MG, 1 μM): 0.04 ng/mL; Granzyme (CD8 cells & U138MG, 3 μM): 0.03 ng/mL; IFN-gamma (CD8 cells & U138MG, 3 μM): 0.02 ng/mL; IL-2 (CD8 cells & U138MG, 3 μM): 0.02 ng/mL; Granzyme (CD8 cells & U138MG, 10 μM): 0.05 ng/mL; IFN-gamma (CD8 cells & U138MG, 10 μM): 0.06 ng/mL; IL-2 (CD8 cells & U138MG, 10 μM): 0.08 ng/mL; Granzyme (CD8 cells only, 0.1 μM): 0.05 ng/mL; IFN-gamma (CD8 cells only, 0.1 μM): 0.00 ng/mL; IL-2 (CD8 cells only, 0.1 μM): 0.00 ng/mL; Granzyme (CD8 cells only, 0.3 μM): 0.04 ng/mL; IFN-gamma (CD8 cells only, 0.3 μM): 0.00 ng/mL; IL-2 (CD8 cells only, 0.3 μM): 0.00 ng/mL; Granzyme (CD8 cells only, 1 μM): 0.05 ng/mL; IFN-gamma (CD8 cells only, 1 μM): 0.00 ng/mL; IL-2 (CD8 cells only, 1 μM): 0.00 ng/mL; Granzyme (CD8 cells only, 3 μM): 0.04 ng/mL; IFN-gamma (CD8 cells only, 3 μM): 0.00 ng/mL; IL-2 (CD8 cells only, 3 μM): 0.00 ng/mL; Granzyme (CD8 cells only, 10 μM): 0.05 ng/mL; IFN-gamma (CD8 cells only, 10 μM): 0.00 ng/mL; IL-2 (CD8 cells only, 10 μM): 0.00 ng/mL

Reference: patent publication US10472341B2, “Bicyclic tetrahydrothiazepine derivatives useful for the treatment of neoplastic and/or infectious diseases” (APEIRON BIOLOGICS AG, priority 2015, dated 2019)
